Reference: patent publication US4285956A, “Xanthene and thioxanthene derivatives, compositions thereof and treatment therewith” (priority 1978, dated 1981)
“Also recorded” adds a separate entry of the source.

Legend:
[1] = Acute toxicity, LD50 in male rats following peroral administration; format: in vivo; settings: for LD50 at 168 h: rat, in vivo, po, male rats, p.o., one week after administration, read-out: LD50 p.o. in male rats after 1 week
Protocol: The acute toxicity, as measured by LD50 in male rats following peroral administration, is much lower for Lu 13-135 when compared with piflutixol one week after administration. The figure for Lu 13-135 is >60 mg/kg against 1.5 mg/kg for piflutixol.

[2] = Methylphenidate antagonism (mice biting corrugated paper); format: in vivo; settings: Mus musculus, ip
Protocol: Methylphenidate antagonism (ED50 mg/kg i.p.)
Perspex observation cages without bottom and lid, consisting of 5 sections each measuring 12×25×30 cm. White corrugated paper. Mice, male, 18-25 g.
The test substance is given i.p. in the doses 0, 1/8, 1/32 and 1/128 of the determined "i.p. LD50". 3×2 mice are used for each dose level. Two or 24 hours after injection of test substance, methylphenidate, 60 mg/kg, is injected s.c. After administration of methylphenidate the mice are placed in the observation cages, 2 in each cage, where they remain for exactly 1 hour. The cages are placed on corrugated paper, the corrugations facing upwards. It is examined whether the mice have been biting the corrugated paper or not. […] If one or more of the control pairs have not been biting, the test has to be repeated on a new set of mice.
The result is stated in fractions: 0/3, 1/3, 2/3 and 3/3 where 0, 1, 2 and 3 are the number of pairs which have not been biting on receipt of the dose in question.
The results are calculated as the dose (ED50), which causes antagonism in 50% of the test animals.

[3] = Catalepsy wire mesh, rat, max.; format: in vivo, rats; settings: for ED50: Rattus norvegicus, sc, read-out: Catalepsy wire mesh, rat, max. ED50
Protocol: Catalepsy wire mesh, rat, max. (ED50 mg/kg s.c.)
A vertical wire netting (50 cm×49 cm). The meshes (openings) of the netting are square (1 cm×1 cm). The wire diameter is 2 mm. Stop watch. Rats, male, 180-200 g.
The animals are labeled and used in groups of five. The test substance is injected subcutaneously (s.c.) (5 ml/kg) at 4 dose levels selected from the fixed dose scale.
The animals are placed in the middle of the vertical wire netting 60, 120, 180, 240, 300 and 360 minutes after injection of the test compound. The animals are considered cataleptic when they remain immobile during a period of 15 seconds. This cataleptic reaction is designated +. If the rats are "atonic" and passively slide down the wire mesh they are considered not cataleptic. If the animals climb up and down the wire mesh they are nor cataleptic. In both situations the designation - is used.

[4] = Amphetamine antagonism (stereotypy in rats); format: in vivo; settings: Rattus norvegicus
[5] = Neuroleptic effect: duration and strength (remarks of Table 2); format: in vivo; settings: for Duration (remarks, words): duration of neuroleptic effect; for Duration (remarks, words) / Strength of effect (remarks, words): in words; for Strength of effect (remarks, words): strength of neuroleptic effect
Description: The pharmacological testing of the novel xanthones and thioxanthenes of Formula I consisted of standard and reliable tests. […]

[6] = Catalepsy wire mesh, rat, max.; format: in vivo; settings: po, rats
[7] = Sedation; settings: in words; for b551 compared with piflutixol
[8] = mice, i.p., methylphenidate 60 mg/kg s.c. 2 h after test substance, read-out: Methylphenidate antagonism ED50, 2 h
[9] = mice, i.p., methylphenidate 60 mg/kg s.c. 24 h after test substance, read-out: Methylphenidate antagonism ED50, 24 h

Compound | Acute toxicity ([1]; in words, compared with related thioxanthenes (b9) or piflutixol) | LD50 at 168 h [1] [mg/kg] | ED50 [2, 8] [mg/kg] | ED50 [2, 9] [mg/kg] | ED50 ([3]; rats, s.c., strongest effect within first 6 hours) [mg/kg] | Cataleptic activity ([3]; in words) | ED50 ([4]; ip, 24 h, read-out: Amphetamine antagonism ED50) [mg/kg] | Duration (remarks, words) [5] | Strength of effect (remarks, words) [5] | ED50 [6] [mg/kg] | ED50 ([4]; po, read-out: Amphetamine antagonism ED50, p.o.) [mg/kg] | Sedation / sedative effect [7] | ED50 ([2]; 2 h, read-out: Methylphenidate antagonism ED50, 2 h) [mg/kg] | ED50 ([2]; 24 h, read-out: Methylphenidate antagonism ED50, 24 h) [mg/kg] | ED50 ([3]; 6 h) [mg/kg] | Duration ([5]; remarks column, hours) [h]
O[C@H]1CC[C@H](CN2CCC(=C3c4ccc(F)cc4Sc4ccc(C(F)(F)F)cc43)CC2)CC1 [Lu 13-135, 1-(trans-4-hydroxycyclohexylmethyl)-4-(2-trifluoromethyl-6-fluoro-9-thioxanthenyliden)-piperidine] | much lower | > 60 | 0.32 | 0.19 | 0.4 | have a cataleptic activity | 0.32 | very long acting; also recorded: long acting | strong; also recorded: very strong | – | – | – | – | – | – | –
CS(=O)(=O)N[C@H]1CC[C@H](CN2CCC(=C3c4ccc(F)cc4Sc4ccc(C(F)(F)F)cc43)CC2)CC1 [Lu 16-049] | – | – | 1 | 0.49 | – | – | – | long acting | moderately strong | 1.7 | 2.5 | – | – | – | – | –
OCCC1CCN(CC/C=C2/c3ccc(F)cc3Sc3ccc(C(F)(F)F)cc32)CC1 [piflutixol, 2-trifluoromethyl-6-fluoro-9-(3-(4-(2-hydroxyethyl)-1-piperidyl)propylidene)-thioxanthene, reference compound] | – | 1.5 | – | – | – | – | – | most long acting | most patent | – | – | very strong sedative effects | 0.03 | 0.03 | 0.05 | 48 to 72
